Experimental data published in patent US20170368049A1 (HANMI PHARM. CO., LTD., priority 2015, published 2017).

Test: Photoreaction test with cholecalciferol (photostability chamber)
Type: physicochemical
Settings: photostability chamber, 1,200,000 LUX, 18.44 hours
Procedure: Cholecalciferol (vitamin D3) also has poor physiochemical stability and may not ensure stability with time. Generally, cholecalciferol is known to be susceptible to moisture, light, and heat. […] The amount of trans-vitamin D3 (after storage in a photostability chamber under 1,200,000 LUX for 18.44 hours) was increased by about 1.2% with respect to initial level, while the amount of vitamin D3 was reduced by about 10%.

SMILES: C=C1CC[C@H](O)C/C1=C/C=C1\CCC[C@]2(C)[C@@H]([C@H](C)CCCC(C)C)CC[C@@H]12 [cholecalciferol, Cholecalciferol]
- increase of the amount of trans-vitamin D3 with respect to initial level: about 1.2%
- reduction of the amount of vitamin D3: about 10%
